Reference: US20220213099A1, “PRODRUG COMPOUNDS” (BRISTOL-MYERS SQUIBB COMPANY, priority 2019, published 2022)
In brackets after ≈: the same amount, converted by molar mass. Structures can show the parent of a compound that is named as a salt. Where two headings read alike, the source gives them in different places.

Tests used:
[1] = Stability evaluation in aqueous buffer; assay type: physicochemical; conditions: aqueous buffer, 37° C., about 50 μg/mL, about 15% v/v acetonitrile
Procedure: The stability study of an individual prodrug was conducted with about 50 μg/mL solutions in aqueous buffers of pH 1 (0.1 M HCl), 4 (acetate buffer) and 6.5 (phosphate buffer) at 37° C. for 24 hours. About 15% v/v acetonitrile was used in these pH buffers as a co-solvent to obtain clear solutions of prodrugs. The sample analysis was carried out using a generic reversed phase liquid chromatographic (LC) method with UV detection. The area percent (AP) loss of the prodrug peak was quantified as a function of time. The appearance of parent peak was identified from the chromatographic retention time. The half-life (t1/2, h) of the prodrug was calculated by using a pseudo-first order equation from a AP loss vs time plot.

[2] = Solubility evaluation in aqueous buffer; assay type: physicochemical; conditions: about 24 hours equilibration; for solubility: thermodynamic from solid
Procedure: The solid powder of an individual prodrug was equilibrated in aqueous buffers of pH 1, 4 and 6.5 at 25° C. for about 24 hours. After equilibration, the excess solid was separated by filtration using 0.45 μm membrane filter and the filtrate was collected in suitable glass vial. The filtrate was diluted appropriately using respective buffers/diluent and analyzed by a reversed phase LC method with UV detection.

[3] = pH 1, pH 1 (0.1 M HCl), read-out: Stability (t1/2, h) at 37° C. pH 1 (converted)
[4] = pH 4, pH 4 (acetate buffer), read-out: Stability (t1/2, h) at 37° C. pH 4 (converted)
[5] = pH 6.5, pH 6.5 (phosphate buffer), read-out: Stability (t1/2, h) at 37° C. pH 6.5 (converted)
[6] = aqueous buffer, 25 °C, pH 1, simulated gastric fluid, aqueous buffer pH 1, 25° C., read-out: Solubility (mg/mL) at 25° C. pH 1
[7] = aqueous buffer, 25 °C, pH 4, aqueous buffer, aqueous buffer pH 4, 25° C., read-out: Solubility (mg/mL) at 25° C. pH 4
[8] = aqueous buffer, 25 °C, pH 6.5, aqueous buffer, aqueous buffer pH 6.5, 25° C., read-out: Solubility (mg/mL) at 25° C. pH 6.5

| SMILES | half-life [1, 3] [h] | half-life [1, 4] [h] | half-life [1, 5] [h] | solubility [2, 6] [mg/mL] | solubility [2, 7] [mg/mL] | solubility [2, 8] [mg/mL] | half-life ([1]; pH 1 (0.1 M HCl), read-out: Stability (t1/2, h) at 37° C. pH 1 (converted)) [h] | half-life ([1]; pH 4 (acetate buffer), read-out: Stability (t1/2, h) at 37° C. pH 4 (converted)) [h] | half-life ([1]; pH 6.5 (phosphate buffer), read-out: Stability (t1/2, h) at 37° C. pH 6.5 (converted)) [h] | solubility ([2]; simulated gastric fluid, aqueous buffer pH 1, 25° C., read-out: Solubility (mg/mL) at 25° C. pH 1) [mg/mL] | solubility ([2]; aqueous buffer pH 4, 25° C., read-out: Solubility (mg/mL) at 25° C. pH 4) [mg/mL] | solubility ([2]; aqueous buffer pH 6.5, 25° C., read-out: Solubility (mg/mL) at 25° C. pH 6.5) [mg/mL] | Solubility (mg/mL) at 25° C. pH 4 ([2]; aqueous buffer pH 4, 25° C., ditrifluoroacetate) [mg/mL] | Solubility (mg/mL) at 25° C. pH 6.5 ([2]; aqueous buffer pH 6.5, 25° C., ditrifluoroacetate) [mg/mL] |
| --- | --- | --- | --- | --- | --- | --- | --- | --- | --- | --- | --- | --- | --- | --- |
| Cc1c(-c2c(C(C)C)c3cc(C4CCN(CC(N)=O)CC4)ccc3n2C(=O)OCOC(=O)C2(N)CC2)cn2ncnc2c1C [Example 15, ((1-Aminocyclopropane-1-carbonyl)oxy)methyl 5-(1-(2-amino-2-oxoethyl)piperidin-4-yl)-2-(7,8-dimethyl-[1,2,4]triazolo[1,5-a]pyridin-6-yl)-3-isopropyl-1H-indole-1-carboxylate trifluoroacetate] | 347 | 139 | 39 | > 0.94 | > 0.9 | 0.8 | – | – | – | – | – | – | – | – |
| COc1cc(C(=O)OCOC(=O)n2c(-c3cn4ncnc4c(C)c3C)c(C(C)C)c3cc(C4CCN(CC(N)=O)CC4)ccc32)ccc1OP(=O)(O)O [Example 22, ((3-Methoxy-4-(phosphonooxy)benzoyl)oxy)methyl 5-(1-(2-amino-2-oxoethyl)piperidin-4-yl)-2-(7,8-dimethyl-[1,2,4]triazolo[1,5-a]pyridin-6-yl)-3-isopropyl-1H-indole-1-carboxylate] | – | – | – | – | – | – | 400 | > 500 | > 500 | > 1.02 | 0.02 (≈ 26.7 µM) | 0.02 (≈ 26.7 µM) | – | – |
| Cc1c(-c2c(C(C)C)c3cc(C4CCN(CC(N)=O)CC4)ccc3n2CO)cn2ncnc2c1C [Example 25, 2-(4-(2-(7,8-Dimethyl-[1,2,4]triazolo[1,5-a]pyridin-6-yl)-1-(hydroxymethyl)-3-isopropyl-1H-indol-5-yl)piperidin-1-yl)acetamide] | 179 | > 500 | > 500 | > 1.41 | 1.28 (≈ 2700 µM) | 0.01 (≈ 21.1 µM) | – | – | – | – | – | – | – | – |
| CNCC(=O)n1c(-c2cn3ncnc3c(C)c2C)c(C(C)C)c2cc(C3CCN(CC(N)=O)CC3)ccc21 [Example 5, 2-(4-(2-(7,8-Dimethyl-[1,2,4]triazolo[1,5-a]pyridin-6-yl)-3-isopropyl-1-(methylglycyl)-1H-indol-5-yl)piperidin-1-yl)acetamide ditrifluoroacetate] | > 500 | 233 | 4.5 | > 2.84 | > 2.15 | 1.19 (≈ 2310 µM) | – | – | – | – | – | – | – | – |
| Cc1c(-c2c(C(C)C)c3cc(C4CCN(CC(N)=O)CC4)ccc3n2C(=O)OC(C)OC(=O)C2(N)CC2)cn2ncnc2c1C (single isomer, unassigned) [Example 6, 1-((1-Aminocyclopropane-1-carbonyl)oxy)ethyl 5-(1-(2-amino-2-oxoethyl)piperidin-4-yl)-2-(7,8-dimethyl-[1,2,4]triazolo[1,5-a]pyridin-6-yl)-3-isopropyl-1H-indole-1-carboxylate ditrifluoroacetate] | > 500 | 415 | 108 | > 1.32 | – | – | – | – | – | – | – | – | 0.52 | >1.22 |
| Cc1c(-c2[nH]c3ccc(C4CC[N+](COC(=O)N(C)CCOP(=O)(O)O)(CC(N)=O)CC4)cc3c2C(C)C)cn2ncnc2c1C (single isomer, unassigned) [Example 20, 1-(2-Amino-2-oxoethyl)-4-(2-(7,8-dimethyl-[1,2,4]triazolo[1,5-a]pyridin-6-yl)-3-isopropyl-1H-indol-5-yl)-1-(((methyl(2-(phosphonooxy)ethyl)carbamoyl)oxy)methyl) piperidin-1-ium trifluoroacetate] | > 500 | > 500 | > 500 | > 1.16 | > 1.87 | > 2.08 | – | – | – | – | – | – | – | – |
